Experimental data: ChEMBL document CHEMBL3301562, “MMV Box screening against Plasmodium falciparum protein kinases and aminoacyl tRNA synthetases”

What was measured:
Type in all cases: functional
[1] = target: T1, Cdk-related protein kinase 6 (Plasmodium falciparum, UniProt O77239); assay: Final concentrations were 1.5 uM ATP, 5 mM MnCl2, and 15 ug/ml PK6 in a buffer of 100 mM Tris-HCl (pH 7.5). 50 ug/mL MBP was provided as the substrate; 10 uM staurosporine was used as a control inhibitor. Incubation time was 3 hours and 40 minutes.The catalytic activity of each kinase was considered proportional to ATP consumed, as determined from measurements of residual [ATP] with the luciferase-based reagent Kinase-Glo (Promega) following incubation. Luminescence (proportional to residual [ATP]) was measured on the plate readers FLx800 (BioTek Instruments, Winooski, VT, USA) and MicroBeta2.
T1 sequence (O77239 whole entry): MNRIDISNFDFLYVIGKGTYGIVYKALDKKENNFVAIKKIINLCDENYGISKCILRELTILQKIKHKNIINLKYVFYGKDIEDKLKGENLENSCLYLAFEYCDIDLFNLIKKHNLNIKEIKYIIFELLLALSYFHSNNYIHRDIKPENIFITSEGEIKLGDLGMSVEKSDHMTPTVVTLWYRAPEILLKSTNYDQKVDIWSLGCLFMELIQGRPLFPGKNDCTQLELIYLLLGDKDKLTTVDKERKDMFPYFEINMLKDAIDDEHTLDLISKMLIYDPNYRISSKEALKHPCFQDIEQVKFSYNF

[2] = target: T2, Putative uncharacterized protein pk7 (Plasmodium falciparum, UniProt O96214); assay: Final concentrations were 1 uM ATP, 2 mM DTT, 20 mM MgCl2, 2 mM MnCl2, 0.01% BSA, and 6 ug/ml PK7, in a buffer of 20 mM Tris-HCl (pH 7.5). The enzyme itself was the only substrate present (since autophosphorylation occurs); 100 uM 1NA-PP1 was used as a control inhibitor. Incubation time was 3 hours.
T2 sequence (O96214 whole entry): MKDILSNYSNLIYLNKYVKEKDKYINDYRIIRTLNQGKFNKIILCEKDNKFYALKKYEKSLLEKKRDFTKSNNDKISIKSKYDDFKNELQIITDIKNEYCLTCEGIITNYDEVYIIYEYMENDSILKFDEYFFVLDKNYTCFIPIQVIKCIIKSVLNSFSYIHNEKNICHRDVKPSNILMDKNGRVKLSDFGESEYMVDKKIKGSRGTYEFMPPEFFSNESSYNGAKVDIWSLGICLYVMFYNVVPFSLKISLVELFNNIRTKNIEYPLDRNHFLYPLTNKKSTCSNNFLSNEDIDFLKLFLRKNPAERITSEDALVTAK

[3] = target: T3, Mitogen-activated protein kinase (Plasmodium falciparum, UniProt Q25917); assay: Final concentrations were 1 uM ATP, 0.5 mM DTT, 1 mM MgCl2, 0.5 mg/mL BSA, and 10 ug/ml MAP2 in a buffer of 50 mM HEPES (pH 7.0). 0.5 mg/mL histone III-S served as the substrate (13); 100 uM AMP-PNP, an ATP analog, was used as a control inhibitor. Incubation time was 4 hours.
T3 sequence (Q25917 whole entry): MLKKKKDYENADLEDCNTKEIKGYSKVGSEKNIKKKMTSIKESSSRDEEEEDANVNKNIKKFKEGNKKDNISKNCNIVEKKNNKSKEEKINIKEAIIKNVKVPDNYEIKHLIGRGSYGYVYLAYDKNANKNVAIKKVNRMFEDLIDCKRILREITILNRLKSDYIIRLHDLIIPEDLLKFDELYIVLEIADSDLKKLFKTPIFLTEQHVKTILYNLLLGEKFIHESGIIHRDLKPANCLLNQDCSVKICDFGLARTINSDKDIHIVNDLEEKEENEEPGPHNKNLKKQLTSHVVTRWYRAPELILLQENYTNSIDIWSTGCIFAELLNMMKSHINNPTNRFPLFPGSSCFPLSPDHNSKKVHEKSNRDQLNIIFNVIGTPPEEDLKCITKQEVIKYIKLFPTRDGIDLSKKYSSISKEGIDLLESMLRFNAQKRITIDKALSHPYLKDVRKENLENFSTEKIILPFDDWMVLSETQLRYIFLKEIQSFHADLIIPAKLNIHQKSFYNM

[4] = target: Calcium-dependent protein kinase 1 (Plasmodium falciparum, UniProt P62344); assay: MMV: CDPK1 Protein kinase inhibition assay using recombinant PfCDPK1, syntide 2 peptide substrate, ATP and KinaseGlo to measure % inhibition at 1 uM MMV box compound.
[5] = target: T4, Calcium-dependent protein kinase 4 (Plasmodium falciparum (isolate 3D7), UniProt Q8IBS5); assay: MMV: CDPK4 Protein kinase inhibition assay using recombinant PfCDPK4, syntide2 peptide substrate, ATP and KinaseGlo to measure % inhibition at 1 uM MMV box compound.
T4 sequence (Q8IBS5 whole entry): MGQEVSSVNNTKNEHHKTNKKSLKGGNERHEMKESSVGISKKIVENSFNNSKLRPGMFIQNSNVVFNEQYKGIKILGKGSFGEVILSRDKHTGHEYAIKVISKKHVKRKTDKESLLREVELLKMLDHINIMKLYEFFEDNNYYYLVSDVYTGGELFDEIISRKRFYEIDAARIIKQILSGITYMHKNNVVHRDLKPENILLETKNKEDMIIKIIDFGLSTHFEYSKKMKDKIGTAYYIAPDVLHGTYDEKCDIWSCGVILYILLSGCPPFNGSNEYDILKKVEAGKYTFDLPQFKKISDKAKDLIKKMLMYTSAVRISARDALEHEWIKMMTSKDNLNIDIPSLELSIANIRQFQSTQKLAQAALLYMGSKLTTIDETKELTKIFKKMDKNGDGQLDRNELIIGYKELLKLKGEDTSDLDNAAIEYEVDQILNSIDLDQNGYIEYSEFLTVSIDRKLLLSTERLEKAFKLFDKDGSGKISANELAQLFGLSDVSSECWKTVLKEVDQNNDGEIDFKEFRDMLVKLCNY

[6] = target: T5, Proline--tRNA ligase (Plasmodium falciparum (isolate 3D7), UniProt Q8I5R7); assay: MMV: ProRS recombinant Plasmodium falciparum Prolyl-tRNA-synthetase, assay with yeast tRNA, ATP, and proline and 3 uM MMV malaria box compound, assay read out with kinase glo as % inhibition.
T5 sequence (Q8I5R7 whole entry): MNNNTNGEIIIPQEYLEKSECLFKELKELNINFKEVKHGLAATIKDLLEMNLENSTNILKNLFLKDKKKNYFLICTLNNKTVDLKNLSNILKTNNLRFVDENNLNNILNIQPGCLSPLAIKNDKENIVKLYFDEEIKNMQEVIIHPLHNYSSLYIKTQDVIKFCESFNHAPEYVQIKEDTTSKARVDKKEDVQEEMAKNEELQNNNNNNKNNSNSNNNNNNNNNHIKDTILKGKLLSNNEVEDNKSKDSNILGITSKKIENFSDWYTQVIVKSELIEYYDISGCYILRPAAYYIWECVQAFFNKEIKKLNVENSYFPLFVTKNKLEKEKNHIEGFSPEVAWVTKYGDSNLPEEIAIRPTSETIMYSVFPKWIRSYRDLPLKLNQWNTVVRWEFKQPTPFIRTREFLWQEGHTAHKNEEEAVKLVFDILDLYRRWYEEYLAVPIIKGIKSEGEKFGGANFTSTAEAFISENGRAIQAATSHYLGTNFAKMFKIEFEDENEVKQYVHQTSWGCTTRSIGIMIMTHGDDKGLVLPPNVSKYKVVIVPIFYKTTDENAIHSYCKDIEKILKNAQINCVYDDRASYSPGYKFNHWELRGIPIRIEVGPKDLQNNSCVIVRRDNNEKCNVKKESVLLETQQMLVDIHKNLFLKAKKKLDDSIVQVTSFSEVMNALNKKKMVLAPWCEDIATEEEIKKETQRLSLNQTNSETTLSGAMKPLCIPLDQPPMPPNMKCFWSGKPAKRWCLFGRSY

[7] = target: Lysine--tRNA ligase (Plasmodium falciparum (isolate 3D7), UniProt Q8IDJ8); assay: MMV: KRS recombinant Plasmodium falciparum Lysyl-tRNA-synthetase, assay with yeast tRNA, ATP, and lysine and 3 uM MMV malaria box compound, assay read out with kinase glo as % inhibition.
Sequence of Lysine--tRNA ligase (Q8IDJ8 whole entry): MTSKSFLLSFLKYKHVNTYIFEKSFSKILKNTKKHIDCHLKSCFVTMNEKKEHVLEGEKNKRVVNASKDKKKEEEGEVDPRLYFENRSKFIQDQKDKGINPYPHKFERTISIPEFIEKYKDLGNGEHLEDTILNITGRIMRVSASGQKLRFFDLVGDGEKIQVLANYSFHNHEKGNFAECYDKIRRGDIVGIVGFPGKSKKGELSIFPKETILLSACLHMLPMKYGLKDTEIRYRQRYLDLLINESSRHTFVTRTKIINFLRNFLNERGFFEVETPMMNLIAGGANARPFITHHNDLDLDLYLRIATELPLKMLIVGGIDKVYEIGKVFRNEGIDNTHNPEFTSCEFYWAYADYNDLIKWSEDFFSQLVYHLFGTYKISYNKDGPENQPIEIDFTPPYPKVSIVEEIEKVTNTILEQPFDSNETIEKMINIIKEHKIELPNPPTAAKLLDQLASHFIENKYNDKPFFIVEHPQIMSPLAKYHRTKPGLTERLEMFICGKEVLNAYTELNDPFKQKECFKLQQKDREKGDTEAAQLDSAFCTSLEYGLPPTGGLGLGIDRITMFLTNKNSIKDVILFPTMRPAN

Sequence of Calcium-dependent protein kinase 1 (P62344 whole entry): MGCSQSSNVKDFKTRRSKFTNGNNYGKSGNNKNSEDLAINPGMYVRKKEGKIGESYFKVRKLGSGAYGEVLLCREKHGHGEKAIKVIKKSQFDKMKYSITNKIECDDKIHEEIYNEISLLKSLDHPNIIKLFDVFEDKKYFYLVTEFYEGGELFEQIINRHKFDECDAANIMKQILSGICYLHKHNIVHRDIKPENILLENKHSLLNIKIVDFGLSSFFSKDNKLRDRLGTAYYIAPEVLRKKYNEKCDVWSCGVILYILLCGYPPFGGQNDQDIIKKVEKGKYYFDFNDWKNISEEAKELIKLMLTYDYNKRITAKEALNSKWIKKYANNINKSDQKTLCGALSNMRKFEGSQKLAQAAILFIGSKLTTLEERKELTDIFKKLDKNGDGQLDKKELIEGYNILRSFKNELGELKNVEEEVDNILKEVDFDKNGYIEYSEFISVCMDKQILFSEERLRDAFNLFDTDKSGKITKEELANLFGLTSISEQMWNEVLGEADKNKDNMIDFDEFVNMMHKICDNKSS

SMILES | IC50 [1] [nM] | IC50 [2] [nM] | IC50 [3] [nM] | IC50 [4] [nM] | IC50 [5] [nM] | IC50 [6] [nM] | IC50 [7] [nM]
CCCCCCC(O)(c1ccc(F)cc1)C(CN1CCOCC1)c1ccccc1 (stereo not given) | > 1000 | > 1000 | > 1000 | > 1000 | > 1000 | > 2500 | > 2500
COc1ccc2c(c1OC)C(=O)N1c3ccccc3N=C(c3ccc(C)cc3)CC21 (stereo not given) | > 1000 | > 1000 | > 1000 | > 1000 | > 1000 | > 2500 | > 2500
Cc1cc(C)c2c(c1)OCN(Cc1ccccc1Cl)C2 | > 1000 | > 1000 | > 1000 | > 1000 | > 1000 | > 2500 | > 2500
CCn1c(CN2CCN(Cc3ccccc3)CC2)nc2cc(NC(=O)c3cccs3)ccc21 | > 1000 | > 1000 | > 1000 | > 1000 | > 1000 | > 2500 | > 2500
CC(C)(C)CC(C)(C)NCC(O)COc1ccc(Cl)cc1Cl (stereo not given) | > 1000 | > 1000 | > 1000 | > 1000 | > 1000 | > 2500 | > 2500
Nc1ccc(-c2nc3cc(Oc4ccc(Oc5ccc6[nH]c(-c7ccc(N)cc7)nc6c5)cc4)ccc3[nH]2)cc1 | > 1000 | > 1000 | > 1000 | > 1000 | > 1000 | > 2500 | > 2500
COc1ccc(C2Sc3ccccc3N=C3C2=C(O)c2ccccc23)cc1 (stereo not given) | > 1000 | > 1000 | > 1000 | > 1000 | > 1000 | > 2500 | > 2500
COc1cccc(O)c1CN1CCC2(CCCN(Cc3ccc(F)cc3)C2)C1 (stereo not given) | > 1000 | > 1000 | > 1000 | > 1000 | > 1000 | > 2500 | > 2500
COc1ccc2c(c1)C1(Nc3ccccc3-c3nc4ccccc4n31)C(=O)N2 (stereo not given) | > 1000 | > 1000 | > 1000 | > 1000 | > 1000 | > 2500 | > 2500
COc1ccc(C(=O)C2CC2c2ccc(Cl)cc2)cc1 (stereo not given) | > 1000 | > 1000 | > 1000 | > 1000 | > 1000 | > 2500 | > 2500
